How the values were obtained:
Assay type in all cases: cell-based
Hela cells [1] = test: Transfection of Hela cell line, DNA vectors; details: 75 ng plasmid DNA, GFP cells / total cells
How it was run: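 Amino lipid/DOPE liposomes in sodium acetate pH 5.6 were complexed with 75 ng psin-EGFP-IRES-Puro plasmid for 30 min at room temperature, then mixed with 3-5×10^4 Hela cells in DMEM/10% FBS at 37° C. Hoechst stain after 20-24 h, imaging after a further 20-24 h. Efficiency = GFP-positive cells / total nuclei.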

MCF7 cells [2] = test: Transfection of MCF7 cell line, mRNA vectors; details: 50 ng EGFP mRNA per well
Description: (§1) Cell line: MCF7 cells (ATCC HTB-22)
Medium: DMEM supplemented with 10 fetal bovine serum (Invitrogen)
(§2) Screening: cell transfection on 96-well plates
Detection (readout): percentage of the number of GFP fluorescent cells relative to the total number of cells (the total number of cells was determined using nucleus dye Hoechst). Lipofectamine2000 (Invitrogen) was used as the positive control.
Method: the experimental method was basically the same with Example 4, and the mass of EGFP mRNA (TriLink) for transfection was 50 ng per well.

MCF7 cells [3] = test: Transfection of MCF7 cell line, DNA vectors; parameters: concentration or dose not given beside the values; details: plasmid DNA, GFP cells / total cells
Description: as §1
Medium DMEM supplemented with […] fetal bovine serum
as §2
Detection (readout): percentage of the number of GFP fluorescent cells relative to the total number of cells (the total number of cells was determined using nucleus dye Hoechst). Lipofectamine2000 was used as the positive control, according to the manufacturer's instructions.
Method: the experimental method was basically the same with Example 4.

Hela cells [4] = test: Transfection of Hela cell line, mRNA vectors; details: 50 ng EGFP mRNA per well
How it was run: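 Transfection efficiency was scored as GFP-fluorescent cells over Hoechst-stained total nuclei, with Lipofectamine2000 as reference reagent. Each well of HeLa cells, grown in DMEM plus 10% FBS, received 50 ng EGFP mRNA.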

HEK293 cells [5] = test: Preliminary screening as mRNA vectors, EGFP mRNA transfection of HEK293 cells; details: HEK293 cells, 96-well plates, EGFP mRNA 50 ng per well; percentage of GFP fluorescent cells relative to total number of cells (Hoechst)
How it was run: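 Screening format: EGFP mRNA transfection (50 ng/well) into HEK293 in 10% FBS-supplemented DMEM. Percent green fluorescent cells, normalised to Hoechst nuclear count, gave the value; Lipofectamine2000 was the reference transfectant.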

HEK293 cells [6] = test: Preliminary screening as DNA vectors, GFP transfection of HEK293 cells; details: HEK293 cells; lipid/DOPE liposome with 75 ng plasmid DNA (psin-EGFP-IRES-Puro); number of cells expressing GFP divided by total number of nuclei (Hoechst)
How it was run: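 First, amino lipid and DOPE were vortexed in sodium acetate buffer (pH 5.6) to form liposomes. Next, these were held with 75 ng EGFP plasmid at room temperature for 30 min. Finally, HEK293 cells were added, cultured at 37° C., Hoechst-stained, and GFP+/total nuclei scored by imaging.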

Row | SMILES | Absolute DNA transfection efficiency in Hela cells (Hela cells [1]) [%] | Absolute mRNA transfection efficiency in MCF7 cells (MCF7 cells [2]) [%] | Absolute DNA transfection efficiency in MCF7 cells (MCF7 cells [3]) [%] | Absolute mRNA transfection efficiency in Hela cells (Hela cells [4]) [%] | Absolute mRNA transfection efficiency in HEK293 cells (HEK293 cells [5]) [%] | Absolute DNA transfection efficiency in HEK293 cells (HEK293 cells [6]) [%]
1 | CCCCCCCCCCCCNc1nc(NCCCN2CCOCC2)nc(SCCCCCCCC)n1 [Compound S8N12D8] | 8.4 | 0.3 | 2.1 | 8.4 |  | 
2 | CCCCCCCCCCCCNc1nc(NCCCN2CCN(C)CC2)nc(SCCCCCCCC)n1 [Compound S8N12D9] | 24.4 | 16.4 | 32.0 | 24.1 |  | 
3 | CCCCCCCCCCCCNc1nc(NCC2CCN(C)CC2)nc(SCCCCCCCC)n1 [Compound S8N12D10] | 22.6 | 23.1 | 40.6 | 22.6 |  | 
4 | CCCCCCCCCCCCCNc1nc(NCCN2CCCC2)nc(SCCCCCCCC)n1 [Compound S8N13D3] | 15.7 | 18.1 | 19.9 | 15.7 |  | 
5 | CCCCCCCCCCCCCNc1nc(NCCN2CCN(C)CC2)nc(SCCCCCCCC)n1 [Compound S8N13D5] | 14.7 | 9.2 | 24.5 | 14.7 |  | 
6 | CCCCCCCCCCCCCNc1nc(NCCCN(C)C)nc(SCCCCCCCC)n1 [Compound S8N13D6] | 27.6 | 33.4 | 32.2 | 27.6 |  | 
7 | CCCCCCCCCCCCCNc1nc(NCCCN2CCOCC2)nc(SCCCCCCCC)n1 [Compound S8N13D8] | 6.6 | 0.4 | 0.9 | 6.6 |  | 
8 | CCCCCCCCCCCCCNc1nc(NCCCN2CCN(C)CC2)nc(SCCCCCCCC)n1 [Compound S8N13D9] | 13.9 | 13.3 | 25.8 | 13.4 |  | 
9 | CCCCCCCCCCCCCNc1nc(NCC2CCN(C)CC2)nc(SCCCCCCCC)n1 [Compound S8N13D10] | 9.5 | 23.0 | 41.7 | 9.5 |  | 
10 | CCCCCCCCCNc1nc(NCCN2CCCC2)nc(SCCCCCCCCC)n1 [Compound S9N9D3] | 27.4 | 12.1 | 8.6 | 27.4 |  | 
11 | CCCCCCCCCNc1nc(NCCN2CCN(C)CC2)nc(SCCCCCCCCC)n1 [Compound S9N9D5] | 23.9 | 8.3 | 21.2 | 23.9 |  | 
12 | CCCCCCCCCNc1nc(NCCCN(C)C)nc(SCCCCCCCCC)n1 [Compound S9N9D6] | 30.3 | 30.7 | 11.0 | 30.3 |  | 
13 | CCCCCCCCCNc1nc(NCCCN2CCOCC2)nc(SCCCCCCCCC)n1 [Compound S9N9D8] | 7.4 | 2.6 | 7.8 | 7.4 |  | 
14 | CCCCCCCCCNc1nc(NCCCN2CCN(C)CC2)nc(SCCCCCCCCC)n1 [Compound S9N9D9] | 25.6 | 21.0 | 42.3 | 25.6 |  | 
15 | CCCCCCCCCNc1nc(NCC2CCN(C)CC2)nc(SCCCCCCCCC)n1 [Compound S9N9D10] | 17.6 | 29.6 | 38.9 | 17.6 |  | 
16 | CCCCCCCCCCCCCCCCSc1nc(NCCN2CCCC2)nc(SCCCCCCCCC)n1 [Compound S9S16D3] | 0.0 | 3.0 | 14.1 | 0.0 | 25.3 | 0.0
17 | CCCCCCCCCCCCCCCCSc1nc(NCCCN(C)C)nc(SCCCCCCCCC)n1 [Compound S9S16D6] | 27.8 | 34.2 | 39.7 | 27.8 | 71.5 | 55.4
18 | CCCCCCCCCCCCCCCCSc1nc(NCCCN2CCOCC2)nc(SCCCCCCCCC)n1 [Compound S9S16D8] | 11.6 | 7.7 | 6.2 | 11.6 | 11.2 | 23.2
19 | CCCCCCCCCCCCCCCCSc1nc(NCCCN2CCN(C)CC2)nc(SCCCCCCCCC)n1 [Compound S9S16D9] | 6.9 | 33.8 | 23.0 | 6.9 | 41.4 | 13.9
20 | CCCCCCCCCCCCCCCCSc1nc(NCC2CCN(C)CC2)nc(SCCCCCCCCC)n1 [Compound S9S16D10] | 28.6 | 46.0 | 36.9 | 28.6 | 66.4 | 56.9
21 | CCCCCCCCCCCSc1nc(NCCCCCCC)nc(NCCN2CCCC2)n1 [Compound S11N7D3] | 9.8 | 5.8 | 4.4 | 9.8 |  | 
22 | CCCCCCCCCCCSc1nc(NCCCCCCC)nc(NCCN2CCN(C)CC2)n1 [Compound S11N7D5] | 11.4 | 3.4 | 4.7 | 11.4 |  | 
23 | CCCCCCCCCCCSc1nc(NCCCCCCC)nc(NCCCN(C)C)n1 [Compound S11N7D6] | 17.0 | 4.2 | 16.2 | 17.0 |  | 
24 | CCCCCCCCCCCSc1nc(NCCCCCCC)nc(NCCCN2CCOCC2)n1 [Compound S11N7D8] | 6.7 | 3.2 | 1.7 | 6.7 |  | 
25 | CCCCCCCCCCCSc1nc(NCCCCCCC)nc(NCCCN2CCN(C)CC2)n1 [Compound S11N7D9] | 8.3 | 5.1 | 5.8 | 8.3 |  | 
26 | CCCCCCCCCCCSc1nc(NCCCCCCC)nc(NCC2CCN(C)CC2)n1 [Compound S11N7D10] | 14.7 | 9.0 | 10.1 | 14.7 |  | 

— patent US20230123334A1, “AMINO LIPID COMPOUND, PREPARATION METHOD THEREFOR, AND APPLICATION THEREOF” (SHENZHEN SHENXIN BIOTECHNOLOGY CO., LTD., priority 2020, published 2023)
